Like-named read-outs stand apart in the source and are kept apart here.
Key:
[1] = test system: serum alanine aminotransferase (ALT); assay: Effect on alanine aminotransferase (ALT) serum levels in mouse; assay type: in vivo
Experimental: To verify whether the selective delivery of FUdR to hepatic cells accomplished by the conjugate causes liver damage, we compared the effect of free and conjugated FUdR on the serum alanine aminotransferase (ALT) (EC 2.6.1.2) level in mice (Table 3). An increase in the level of this enzyme is an index of hepatocyte damage. The drugs were administered according to the schedule used for the experiments on the growth of hepatic metastases.

[2] = patients with colorectal cancer, intravenous continuous infusion of a therapeutic dose; cited from earlier work
[3] = test system: hepatic metastases of murine colon carcinoma C-26 cells; assay: Effect of free and conjugated FUdR on liver metastases of C-26 cells in mouse; assay type: in vivo; conditions: for Increase of liver weight: saline 1.22 ± 0.25; for Total Liver DNA: saline 11.83 ± 1.75
Experimental: Female Balb/C mice 7-8 weeks old (weighing 16-19 g) and male Wistar rats (weighing 170-190 g) were used. They were obtained from Harlan Italy and were maintained in an animal facility at the Department of Experimental Pathology, Bologna, receiving humane care, in accordance with European Legislation. The protocols of the experiments were approved by the Ethical Committee of the University of Bologna. Animals. were fed a standard pellet diet ad lib.
Compounds were injected intravenously every other day, starting 24 h after inoculation of tumour cells. Four administrations were performed, and the animals were sacrificed one day after the injection.

[4] = [^3H]FUdR levels in inferior vena cava (IVC) and hepatic veins (HV) of rats intravenously injected with free or L-HSA conjugated [^3H]FUdR; assay type: in vivo; conditions: rat
From the text: Two radioactive conjugates were synthesised: one labelled in the carrier (L-[^14C]HSA-FUdR) and one in the drug moiety (L-HSA-[^3H]FUdR). […] The conjugateradioactive in the drug moiety (three preparations) was obtained using [^3H]FUdR (Moravek).
They were obtained from Harlan Italy and were maintained in an animal facility at the Department of Experimental Pathology, Bologna, receiving humane care, in accordance with European Legislation. The protocols of the experiments were approved by the Ethical Committee of the University of Bologna. Animals. were fed a standard pellet diet ad lib.
Plasma levels of free [^3H]FUdR were measured by using the isotope dilution procedure and HPLC. In order to identify the elution time of [^3H]FUdR in HPLC chromatogram and to evaluate the recovery, 15 μg of unlabeled FUdR was added to each plasma sample (400 μl), kept cold in ice. Plasma proteins were removed by the addition of 30 μl trichloroacetic acid 80% and centrifugation at 2-4° C. After diethylether extraction to eliminate trichloroacetic acid, […] supernatant was chromatographed on a Spherisorb ODS2 equilibrated on 20 mM sodium tetraborate pH 7.5 and eluted with a linear gradient of methanol (0-30%). Radioactivity eluting at the position of FUdR marker was counted and the plasma concentration of [^3H]FUdR was calculated taking into account the recovery of the marker (measured by UV absorbance) and the specific activity (SA) of injected [^3H]FUdR. […] When radioactivity of FUdR peak was lower than 200 dpm, the plasma concentration of [^3H]FUdR was considered below a measurable level (BML). With a 90% recovery of FUdR marker, the lowest measurable plasma concentration was about 25 ng [^3H]FUdR/ml.
These concentrations are a measure of drug levels in systemic circulation and in liver blood, respectively.

[5] = Exp. 1, daily dose 5 μg/g i.v. every other day x4, NS

O=c1[nH]c(=O)n([C@H]2C[C@H](O)[C@@H](CO)O2)cc1F [Free FUdR, 5-fluoro-2′-deoxyuridine]
Serum ALT levels ([1]; Exp 2, 50 μg/g, four i.v. injections on alternate days, saline 64.5 ± 15.0, p = 0.045): 114.8 ± 16.0 p = 0.045 U/I
Effect on serum ALT level ([1]; dose 5 times higher than that active on the metastases): increase in ALT levels at the limit of statistical significance
Estimated blood concentration of the drug [2]: about 0.2 ng/ml
Increase of liver weight [3, 5]: 1.00 ± 0.17 g
Total Liver DNA [3, 5]: 9.47 ± 1.06 mg
Increase of liver weight ([3]; Exp. 1, daily dose 10 μg/g i.v. every other day x4, p = 0.070): 0.64 ± 0.15 g
Total Liver DNA ([3]; Exp. 1, daily dose 10 μg/g i.v. every other day x4, p = 0.041): 7.32 ± 0.91 mg
Daily dose that inhibited the tumour growth ([3]; i.v. every other day, four administrations): 10 µg/g
concentration at 15 min ([4]; male, Wistar, plasma of hepatic vein blood, iv, i.v. 2.5 μg/g, 15 min, read-out: [^3H]FUdR level HV): 57.6 ± 9 ng/mL
concentration at 7 min ([4]; male, Wistar, plasma of hepatic vein blood, iv, i.v. 10 μg/g, 7 min, read-out: [^3H]FUdR level HV): 385 ng/mL
concentration at 15 min ([4]; male, Wistar, plasma of hepatic vein blood, iv, i.v. 10 μg/g, 15 min, read-out: [^3H]FUdR level HV): 203 ng/mL
concentration at 30 min ([4]; male, Wistar, plasma of hepatic vein blood, iv, i.v. 10 μg/g, 30 min, read-out: [^3H]FUdR level HV): 77.5 ± 43.6 ng/mL
concentration at 15 min ([4]; male, Wistar, plasma of hepatic vein blood, iv, i.v. free 1.2 μg/g, 15 min, read-out: [^3H]FUdR level HV): 40.9 ± 7.7 ng/mL
concentration at 7 min ([4]; male, Wistar, plasma of inferior vena cava blood, iv, i.v. 0.15 μg/g, 7 min, read-out: [^3H]FUdR level IVC): 80.1 ± 4.2 ng/mL
concentration at 15 min ([4]; male, Wistar, plasma of inferior vena cava blood, iv, i.v. 2.5 μg/g, 15 min, read-out: [^3H]FUdR level IVC): 404 ± 47.9 ng/mL
concentration at 30 min ([4]; male, Wistar, plasma of inferior vena cava blood, iv, i.v. 2.5 μg/g, 30 min, read-out: [^3H]FUdR level IVC): 156 ± 51.9 ng/mL
concentration at 45 min ([4]; male, Wistar, plasma of inferior vena cava blood, iv, i.v. 2.5 μg/g, 45 min, read-out: [^3H]FUdR level IVC): 25.5 ± 0.2 ng/mL
concentration at 7 min ([4]; male, Wistar, plasma of inferior vena cava blood, iv, i.v. 10 μg/g, 7 min, read-out: [^3H]FUdR level IVC): 1570 ng/mL
concentration at 15 min ([4]; male, Wistar, plasma of inferior vena cava blood, iv, i.v. 10 μg/g, 15 min, read-out: [^3H]FUdR level IVC): 1060 ng/mL
concentration at 30 min ([4]; male, Wistar, plasma of inferior vena cava blood, iv, i.v. 10 μg/g, 30 min, read-out: [^3H]FUdR level IVC): 467 ± 228 ng/mL
concentration at 15 min ([4]; male, Wistar, plasma of inferior vena cava blood, iv, i.v. free 1.2 μg/g, 15 min, read-out: [^3H]FUdR level IVC): 275.2 ± 0.7 ng/mL
concentration at 30 min ([4]; male, Wistar, plasma of inferior vena cava blood, iv, i.v. free 1.2 μg/g, 30 min, read-out: [^3H]FUdR level IVC): 38.9 ± 5.8 ng/mL
[^3H]FUdR level HV ([4]; i.v. 0.15 μg/g, 7 min): BML^b) (Below Measurable Level (<25 ng/ml))
Levels in HV / Levels in IVC ([4]; i.v. 2.5 μg/g, 15 min): 0.15 ± 0.04
Levels in HV / Levels in IVC ([4]; i.v. 2.5 μg/g, 30 min): 0.19
[^3H]FUdR level HV ([4]; i.v. 2.5 μg/g, 45 min): BML (Below Measurable Level (<25 ng/ml))
Levels in HV / Levels in IVC ([4]; i.v. 10 μg/g, 7 min): 0.24
Levels in HV / Levels in IVC ([4]; i.v. 10 μg/g, 15 min): 0.19
Levels in HV / Levels in IVC ([4]; i.v. 10 μg/g, 30 min): 0.16 ± 0.02
Levels in HV / Levels in IVC ([4]; i.v. free 1.2 μg/g, 15 min): 0.15 ± 0.03
[^3H]FUdR level HV ([4]; i.v. free 1.2 μg/g, 30 min): BML (Below Measurable Level (<25 ng/ml))
[^3H]FUdR level HV ([4]; i.v. free 1.2 μg/g, 60 min): BML (Below Measurable Level (<25 ng/ml))
[^3H]FUdR level IVC ([4]; i.v. free 1.2 μg/g, 60 min): BML (Below Measurable Level (<25 ng/ml))

— US20040044178A1, “Hepatotropic conjugates of antiblastic drugs accomplishing a loco-regional chemotherapy of liver micrometastases after adminstration by peripheral venous route” (priority 2001, published 2004)
